Assay results from patent US20100216706A1, “Ghrelin Protects Substantia Nigra Dopamine Neurons” (priority 2007, published 2010).
“And” between values parts separate entries of the source, which are not always exact repeats. Equal values may be shown once. *: point of attachment. Octyl = CCCCCCCC*

What was measured:
[1] = Matsumoto et al., 2001; cited from earlier work
[2] = molecular target: growth hormone secretagogue receptor 1a (GHSR) on SNpc dopamine neurons, species of the tissue not stated for the experiment (mouse and/or rat); experiment: cell-based or functional assay
TH neurons in the SNpc = experiment: MPTP-induced TH cell loss in the SNpc (stereology, optical fractionator); assay type: in vivo, mice
From the text: (§1) Control animals were given saline. Animals were sacrificed and perfused 7 days later and processed for immunohistochemistry or HPLC for dopamine (DA) and metabolites. n=8-10 for ghrelin wt and ko mice; n=6 for GHSR wt/wt, homo/wt and homo/TG.
TH cell quantification: Free floating sections were stained with TH (1:5000, Chemicon International) and visualized with DAB using standard procedures.
Unbiased stereology methods were used to quantify TH immunoreactive cells in the SNpc. Cells were visualized by a Zeiss microscope and relayed via a MicroFibre digital camera (www(dot)optronics(dot)com) to a computer where they were counted using the optical fractionator with the sophisticated Stereolnvestigator software (MicroBrightField, Williston, Vt., USA). Every fourth section was collected through the SNpc, and TH cells were counted in grids randomly positioned by the software in the outlined counting area through all optical planes, thus creating a 3 dimensional counting area.
(§2) The observation that ghrelin promotes SNpc DA neuronal function, mitochondrial respiration and number raises the possibility that ghrelin may protect nigrostriatal dopaminergic system during increased cellular stress. […] In brief, mice were treated with daily IP injections of exogenous ghrelin (10 nmols) or saline for 14 days. Mice were injected immediately before the dark phase, and food was removed overnight since calorie intake and postprandial increases in glucose and insulin can suppress the action of ghrelin (Cummings et al., 2006, Physiol Behav 89: 71-84). Both ghrelin and saline treated mice were given 3 grams of standard chow the following morning at 9 am. […] After the subsequent 7 days of treatment (saline or ghrelin), TH immunoreactive neurons were counted blind by two independent researchers using the non-biased optical fractionator on the stereology program, Stereoinvestigator.

striatal dopamine = experiment: Striatal dopamine after MPTP (HPLC); assay type: in vivo, mice; details: saline 14 days, MPTP on day 7
Experimental: as §1
The samples were subsequently thawed in 0.4 ml of chilled 0.1 M perchloric acid and sonicated. Aliquots were taken for protein quantification using a spectrophotometric assay. Other aliquots were centrifuged, and DA levels were measured in supernatants by high pressure liquid chromatography (HPLC) with electrochemical detection. Concentrations of DA and metabolites were expressed as ng/mg protein (mean±SEM).
as §2

[3] = Body weight gain after MPTP in ghrelin wt and ko mice; assay type: in vivo; details: from day 1 to day 7 after MPTP
From the text: as §1
Wt and ko mice treated with saline gained a similar amount of weight over the 7 days (wt saline 1.39±0.19 g vs ko saline 1.59±0.49 g).

## 5-aminopentanoyl-Ser(Octyl)-Phe-Leu-aminoethylamide ({5‑aminopentanoyl}-Ser(Octyl)-Phe-Leu-aminoethylamide; also: acylation site at position 3; listed as Homo sapiens)
[1]
  Ghrelin activity: potent ghrelin activity

## ghrelin (unlabeled, Phoenix Pharmaceuticals) (peptide)
[2]
  action potential frequency of SNpc DA neurons (whole-cell current clamp, brain slices): 132 % of control

## CN1CC=C(c2ccccc2)CC1 [MPTP, 1-methyl-4-phenyl-1,2,5,6 tetrahydropyridine]
TH neurons in the SNpc; MPTP 30 mg/kg IP, 7 days, ko saline 8580±78
  TH-immunoreactive cells in SNpc, ghrelin−/− mice: 3691±550
TH neurons in the SNpc; MPTP 30 mg/kg IP, 7 days, wt saline 9105±342
  TH-immunoreactive cells in SNpc, ghrelin+/+ mice: 6688±610
TH neurons in the SNpc; MPTP, homo/TG saline 12293±1123
  TH neurons in SNpc, GHSR homo/TG (TH-only) mice: 9401±743
TH neurons in the SNpc; MPTP, homo/wt saline 11590±1133
  TH neurons in SNpc, GHSR homo/wt (null) mice: 6582±636
TH neurons in the SNpc; MPTP, wt/wt saline 11902±713
  TH neurons in SNpc, GHSR wt/wt mice: 9171±765
TH neurons in the SNpc; saline 14 days, MPTP on day 7
  Dopamine cell loss compared to controls, saline treatment after MPTP lesion: 49%
TH neurons in the SNpc; wt mice, saline 14 days, MPTP 30 mg/kg IP on day 7, sal/sal 11283±342
  Total TH neurons in SNpc, sal/MPTP: 5750±432
Striatal dopamine
  Loss of striatal dopamine vs controls, sal/MPTP: 65%
Striatal dopamine; sal/sal 147.4±10.2
  Striatal dopamine concentration, sal/MPTP: 51.4±2.7 ng/mg protein
[3]; ko saline 1.59±0.49
  Body weight gain, ghrelin ko mice: 1.37 ± 0.15 g
[3]; wt saline 1.39±0.19
  Body weight gain, ghrelin wt mice: 2.16 ± 0.10 g and 2.17 ± 0.10 g
